Data taken from patent US6818617B1 (Temple University- Of The Commonwealth System of Higher …, priority 1997, dated 2004).
Like-named read-outs stand apart in the source and are kept apart here. Where a SMILES comes first, the peptide text is derived from it. Bridges are numbered along the chain shown (N, C = ends). Where no end group is shown, it is not given here.

What was measured:
α4β1 [1] = target: T1, α4β1 (Homo sapiens, UniProt P05556+P13612); experiment: Jurkat cell adhesion to immobilized VCAM-1; format: cell-based
T1 construct: host or cells: Jurkat
Description: (§1) Adhesion of cultured cells labeled with 5-chloromethylfluorescein diacetate (CMFDA) was performed as described earlier (Marcinkiewicz et al., Blood 90:1565-1575 (1997)). […] Wells were blocked by 1% BSA in HBSS buffer. Cells were labeled with fluorescein by incubation with 12.5 AM CMFDA in HBSS buffer containing 1% BSA at 37° C. by 15 min. Unbound label was removed by washing with the same buffer. Labeled cells (1×10^5 per sample) were added to the well in the presence or absence of inhibitors and incubated at 37° C. for 30 min. Unbound cells were removed by aspiration, the wells were washed and bound cells were lysed by adding 0.5% Triton X-100. In parallel the standard curve was prepared in the same plate from known concentrations of labelled cells. The plate was read using a Cytofluor 2350 fluorescence plate reader (Millipore, Bedford, Mass.) at 485 nm EX(excitation) filter and 530 nm (emmision) filter.
The cell adhesion assay (as described in Example 1) was used to study the inhibitory effect of the eluted fractions on Jurkat cell adhesion to immobilized VCAM-1 and on K562 cell adhesion to fibronectin. Recombinant VCAM-1 (0.5 μg/well) or fibronectin (0.5 μg/well) were immobilized overnight at 4° C. on a 96-well plate (Falcon) in PBS buffer. After blocking, the CMFDA-labeled cells were added to each well in the presence of 5 μg per sample of protein from selected fractions.
Recombinant human VCAM-1 (0.5 μg/well) was immobilized in the wells of an ELISA plate overnight in PBS buffer. The plate was blocked using HBSS buffer containing 1% BSA. […] The plate was incubated for 30 minutes at 37° C. Unbound cells were removed by aspiration and the wells were washed with HBSS buffer.
(§2) The effect of each peptide on cell adhesion was determined as described above. […] Cells that attached to the plates were lysed with detergent, and fluorescence intensity was measured. Percent inhibition was measured at each concentration and IC50 was determined.

αIIbβ3, αvβ3, α5β1 = experiment: Panel of RGD-selective integrin assays (platelet aggregation and cell adhesion); format: cell-based; details: range over the panel (Table 1); read-out: concentrations of potent inhibition of αIIbβ3-dependent platelet aggregation and αIIbβ3-, αvβ3-, α5β1-dependent cell adhesion
Description: as §2
(§3) Blood from a healthy donor was collected into a syringe containing sodium citrate as an anticoagulant. The anticoagulated blood was centrifuged at 400 g for 17 minutes, and platelet rich plasma (PRP) was removed by aspiration.

αvβ3 = target: T2, αvβ3 (Homo sapiens, UniProt P05106+P06756); experiment: VNRC3 (CHOαvβ3+) cell adhesion to immobilized vitronectin; format: cell-based; details: VNRC3 (CHOαvβ3+) cells, ligand Vn
T2 construct: expressed in transfected cells; host or cells: CHO (VNRC3 cells), gift of Dr. M. Ginsberg
Description: as §1, §2

α4β7 = target: T3, α4β7 (Homo sapiens, UniProt P13612+P26010); experiment: RPMI 8866 cell adhesion to MadCAM-1; format: cell-based; details: RPMI 8866 cells, α4β7, ligand MadCAM-1
T3 construct: endogenous in cells; host or cells: JY cells (A11); RPMI 8866 cells (A12)
Description: as §1, §2

αIIbβ3 [2] = target: T4, αIIbβ3 (Homo sapiens, UniProt P05106+P08514); experiment: ADP-induced platelet aggregation in platelet rich plasma (ADP PA); format: cell-based; design: endogenous in cells; host or cells: platelets in platelet rich plasma; details: Platelets, αIIbβ3, ligand Fg, 30 μM ADP
Description: as §3

α4β1 and α4β7 integrins = experiment: Panel of α4 integrin cell adhesion assays; format: cell-based; details: at 10 μM
Description: as §1, §2

[3] = system: lymphocyte infiltration of pancreatic Langerhans islets; experiment: Lymphocyte infiltration of Langerhans islets in Non Obese Diabetic (NOD) mice; format: in vivo, mouse; details: for effect on lymphocyte infiltration in pancreatic islets of NOD mice (in words): i.p. three times per week, nine weeks
Description: Female NOD mice from […] of age were purchased from Jackson Laboratory (Bar Harbor, Me.).
After nine weeks of treatment the animals were sacrificed by exposure to CO2. The pancreas was removed, frozen, and stored at −70° C. until the histological analysis. For the histological analysis, five μm sections of frozen tissue were fixed with acetone. For detection of infiltrating lymphocytes, the sections were stained with hematoxylin/eosin, and observed by light microscopy.

α6β1 = target: T5, α6β1 (Homo sapiens, UniProt P05556+P23229); experiment: K562 (α6+) cell adhesion to laminin; format: cell-based
T5 construct: expressed in transfected cells; host or cells: K562 transfected with α6
Description: as §1, §2

α4β1 [4] = target: T6, α4β1 (UniProt G3HZ55+P13612); experiment: A2 (CHOα4+) cell adhesion to immobilized VCAM-1; format: cell-based, human; design: expressed in transfected cells; host or cells: CHO (A2 cells, α4+ α5+), gift of Dr. Y. Takada; details: A2 (CHOα4+) cells, ligand VCAM-1
Description: as §1, §2

α5β1 = target: T7, α5β1 (Homo sapiens, UniProt P05556+P08648); experiment: K562 cell adhesion to immobilized fibronectin; format: cell-based; details: 5 μg per sample of protein from fraction
T7 construct: host or cells: K562
Description: as §1

α4β1 [5] = target: T6, α4β1; experiment: α4B2 (CHOα4+/α5−) cell adhesion to immobilized VCAM-1; format: cell-based, human; design: expressed in transfected cells; host or cells: B2 CHO cells (α5-deficient), gift of Dr. Y. Takada; details: α4B2 (CHOα4+/α5−) cells, ligand VCAM-1
Description: as §1
Chinese hamster ovary cells transfected with human α4 integrin were provided by Dr. Y. Takada (Scripps Research Institute, La Jolla, Calif.). […] The bound cells were lysed with 0.5% Triton X-100, and fluorescence was measured.
as §2

αIIbβ3 [6] = target: T4, αIIbβ3; experiment: A5 (CHOαIIbβ3+) cell adhesion to immobilized fibrinogen; format: cell-based; details: A5 (CHOαIIbβ3+) cells, ligand Fg
Description: as §1, §2

Jurkat cells = experiment: Adhesion of Jurkat cells to immobilized EC3; format: cell-based; details: 1 mM
Description: as §1
The adhesion study was performed using CMFDA-labeled Jurkat cells in the absence or presence 1 mM GRGDSP or GRGESP, or 10 μg/ml HP 2/1. Competition between EC3 and HP2/1 was also confirmed in cell suspension using FACS analysis. […] The experiment was performed using flow cytometry. […] The samples were fixed by addition of 1% paraformaldehyde before measurement of fluorescence intensity.

MV3 cells = details: immune deficient mice; cited from earlier work
αIIbβ3 [7] = target: T4, αIIbβ3; design: endogenous in cells; host or cells: platelets in platelet rich plasma; details: after reduction and ethylpyridylethylation; Calvete et al.; cited from earlier work
α4β1 (VLA-4) integrin = details: rabbit cardiac allografts; cited from earlier work

T5 sequence (P23229 24-938 limits assumed): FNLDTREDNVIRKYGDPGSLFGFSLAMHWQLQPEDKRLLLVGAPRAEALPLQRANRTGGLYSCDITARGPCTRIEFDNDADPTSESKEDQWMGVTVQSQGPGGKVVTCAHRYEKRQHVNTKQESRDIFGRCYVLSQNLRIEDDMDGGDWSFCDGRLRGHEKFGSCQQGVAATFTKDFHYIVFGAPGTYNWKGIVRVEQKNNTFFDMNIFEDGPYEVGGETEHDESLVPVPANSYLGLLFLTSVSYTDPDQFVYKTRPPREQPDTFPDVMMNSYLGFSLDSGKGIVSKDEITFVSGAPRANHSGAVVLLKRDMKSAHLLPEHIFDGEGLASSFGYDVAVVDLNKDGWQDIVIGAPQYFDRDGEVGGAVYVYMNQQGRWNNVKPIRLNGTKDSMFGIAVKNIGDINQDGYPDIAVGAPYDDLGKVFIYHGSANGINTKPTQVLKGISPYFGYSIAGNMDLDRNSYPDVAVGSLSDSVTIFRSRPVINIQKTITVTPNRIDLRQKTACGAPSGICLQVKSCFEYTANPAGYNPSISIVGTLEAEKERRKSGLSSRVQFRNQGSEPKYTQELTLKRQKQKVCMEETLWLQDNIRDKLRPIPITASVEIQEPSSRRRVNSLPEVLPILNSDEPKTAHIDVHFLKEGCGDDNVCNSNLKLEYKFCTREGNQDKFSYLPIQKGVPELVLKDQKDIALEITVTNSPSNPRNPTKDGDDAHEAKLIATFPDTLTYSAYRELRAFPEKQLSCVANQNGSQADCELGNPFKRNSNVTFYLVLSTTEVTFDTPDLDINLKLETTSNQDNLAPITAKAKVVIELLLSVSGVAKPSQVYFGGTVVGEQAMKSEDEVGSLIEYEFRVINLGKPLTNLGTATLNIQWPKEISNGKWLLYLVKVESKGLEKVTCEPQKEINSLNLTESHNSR
T5 sequence (P23229 942-1130 partner limits assumed): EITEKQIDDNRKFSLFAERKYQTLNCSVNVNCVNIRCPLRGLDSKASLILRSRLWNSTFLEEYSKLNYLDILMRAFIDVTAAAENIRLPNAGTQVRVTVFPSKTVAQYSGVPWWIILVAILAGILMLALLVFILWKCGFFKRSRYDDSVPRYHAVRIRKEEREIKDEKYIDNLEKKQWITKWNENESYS
T5 sequence (P05556 21-798): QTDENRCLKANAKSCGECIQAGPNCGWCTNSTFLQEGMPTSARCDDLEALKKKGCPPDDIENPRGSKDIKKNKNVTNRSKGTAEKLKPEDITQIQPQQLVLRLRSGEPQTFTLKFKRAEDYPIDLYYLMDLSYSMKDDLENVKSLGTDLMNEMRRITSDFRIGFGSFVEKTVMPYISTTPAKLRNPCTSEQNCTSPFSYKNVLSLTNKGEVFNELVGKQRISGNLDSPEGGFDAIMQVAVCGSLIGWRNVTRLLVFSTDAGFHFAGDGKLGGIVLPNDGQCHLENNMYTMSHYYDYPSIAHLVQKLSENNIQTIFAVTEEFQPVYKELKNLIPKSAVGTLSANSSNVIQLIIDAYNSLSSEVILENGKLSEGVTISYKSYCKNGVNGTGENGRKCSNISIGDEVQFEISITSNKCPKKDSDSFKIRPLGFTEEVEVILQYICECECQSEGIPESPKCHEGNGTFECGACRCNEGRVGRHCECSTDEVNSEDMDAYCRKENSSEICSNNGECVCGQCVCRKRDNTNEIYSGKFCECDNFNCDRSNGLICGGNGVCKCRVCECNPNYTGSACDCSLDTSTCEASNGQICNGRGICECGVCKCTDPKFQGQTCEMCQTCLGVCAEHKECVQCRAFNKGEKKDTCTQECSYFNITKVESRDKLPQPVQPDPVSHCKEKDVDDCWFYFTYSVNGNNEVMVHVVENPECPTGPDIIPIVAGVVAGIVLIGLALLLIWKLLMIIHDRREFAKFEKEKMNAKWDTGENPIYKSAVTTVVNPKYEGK
T2 sequence (P06756 31-889 limits assumed): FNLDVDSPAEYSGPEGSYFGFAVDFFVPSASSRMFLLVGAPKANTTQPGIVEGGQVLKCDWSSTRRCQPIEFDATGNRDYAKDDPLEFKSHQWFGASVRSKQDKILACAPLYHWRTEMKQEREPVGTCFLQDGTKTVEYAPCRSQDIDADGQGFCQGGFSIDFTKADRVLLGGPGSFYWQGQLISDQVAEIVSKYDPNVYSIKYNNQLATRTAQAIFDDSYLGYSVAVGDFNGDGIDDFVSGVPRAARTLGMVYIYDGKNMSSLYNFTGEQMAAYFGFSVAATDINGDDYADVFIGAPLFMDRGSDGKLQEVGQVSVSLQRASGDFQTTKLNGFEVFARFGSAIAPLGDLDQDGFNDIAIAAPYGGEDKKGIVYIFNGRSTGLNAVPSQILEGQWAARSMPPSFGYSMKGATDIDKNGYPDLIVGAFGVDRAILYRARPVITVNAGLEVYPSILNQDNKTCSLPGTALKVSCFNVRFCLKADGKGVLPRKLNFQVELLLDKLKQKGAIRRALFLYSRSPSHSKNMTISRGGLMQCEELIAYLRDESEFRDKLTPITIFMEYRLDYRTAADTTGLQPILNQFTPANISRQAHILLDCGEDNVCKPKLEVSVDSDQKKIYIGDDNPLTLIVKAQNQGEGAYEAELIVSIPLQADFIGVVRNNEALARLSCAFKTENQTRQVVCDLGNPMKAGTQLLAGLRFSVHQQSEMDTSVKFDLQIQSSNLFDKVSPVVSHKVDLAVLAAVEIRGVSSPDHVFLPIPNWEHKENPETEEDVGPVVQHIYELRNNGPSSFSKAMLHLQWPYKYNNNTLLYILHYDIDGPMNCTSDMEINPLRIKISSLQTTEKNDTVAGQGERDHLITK
T2 sequence (P06756 891-1048 partner limits assumed): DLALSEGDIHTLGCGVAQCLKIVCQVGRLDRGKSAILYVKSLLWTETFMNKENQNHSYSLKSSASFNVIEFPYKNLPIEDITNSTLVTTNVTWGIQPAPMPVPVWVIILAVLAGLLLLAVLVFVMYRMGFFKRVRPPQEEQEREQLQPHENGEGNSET
T2 sequence (P05106 27-788): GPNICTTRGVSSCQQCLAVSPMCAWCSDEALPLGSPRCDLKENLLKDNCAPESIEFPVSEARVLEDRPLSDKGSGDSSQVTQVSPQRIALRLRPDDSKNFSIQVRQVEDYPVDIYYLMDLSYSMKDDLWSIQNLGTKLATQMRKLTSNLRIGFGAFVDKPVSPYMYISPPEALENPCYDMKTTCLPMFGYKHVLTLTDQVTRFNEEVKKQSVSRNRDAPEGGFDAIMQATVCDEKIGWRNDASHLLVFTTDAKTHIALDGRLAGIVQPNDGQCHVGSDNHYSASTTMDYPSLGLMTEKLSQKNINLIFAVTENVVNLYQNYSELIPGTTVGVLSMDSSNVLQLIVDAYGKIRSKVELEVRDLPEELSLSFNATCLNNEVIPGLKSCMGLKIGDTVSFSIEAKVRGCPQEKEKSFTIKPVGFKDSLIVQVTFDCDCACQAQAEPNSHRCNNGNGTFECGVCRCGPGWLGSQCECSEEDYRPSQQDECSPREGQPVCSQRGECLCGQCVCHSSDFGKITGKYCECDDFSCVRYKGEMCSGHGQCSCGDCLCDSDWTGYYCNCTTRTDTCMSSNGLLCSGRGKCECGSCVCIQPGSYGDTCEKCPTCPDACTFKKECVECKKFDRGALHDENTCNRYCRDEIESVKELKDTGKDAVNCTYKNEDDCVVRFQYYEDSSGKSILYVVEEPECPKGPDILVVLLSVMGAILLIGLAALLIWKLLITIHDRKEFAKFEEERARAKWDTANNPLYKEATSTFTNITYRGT
T7 sequence (P08648 42-894 limits assumed): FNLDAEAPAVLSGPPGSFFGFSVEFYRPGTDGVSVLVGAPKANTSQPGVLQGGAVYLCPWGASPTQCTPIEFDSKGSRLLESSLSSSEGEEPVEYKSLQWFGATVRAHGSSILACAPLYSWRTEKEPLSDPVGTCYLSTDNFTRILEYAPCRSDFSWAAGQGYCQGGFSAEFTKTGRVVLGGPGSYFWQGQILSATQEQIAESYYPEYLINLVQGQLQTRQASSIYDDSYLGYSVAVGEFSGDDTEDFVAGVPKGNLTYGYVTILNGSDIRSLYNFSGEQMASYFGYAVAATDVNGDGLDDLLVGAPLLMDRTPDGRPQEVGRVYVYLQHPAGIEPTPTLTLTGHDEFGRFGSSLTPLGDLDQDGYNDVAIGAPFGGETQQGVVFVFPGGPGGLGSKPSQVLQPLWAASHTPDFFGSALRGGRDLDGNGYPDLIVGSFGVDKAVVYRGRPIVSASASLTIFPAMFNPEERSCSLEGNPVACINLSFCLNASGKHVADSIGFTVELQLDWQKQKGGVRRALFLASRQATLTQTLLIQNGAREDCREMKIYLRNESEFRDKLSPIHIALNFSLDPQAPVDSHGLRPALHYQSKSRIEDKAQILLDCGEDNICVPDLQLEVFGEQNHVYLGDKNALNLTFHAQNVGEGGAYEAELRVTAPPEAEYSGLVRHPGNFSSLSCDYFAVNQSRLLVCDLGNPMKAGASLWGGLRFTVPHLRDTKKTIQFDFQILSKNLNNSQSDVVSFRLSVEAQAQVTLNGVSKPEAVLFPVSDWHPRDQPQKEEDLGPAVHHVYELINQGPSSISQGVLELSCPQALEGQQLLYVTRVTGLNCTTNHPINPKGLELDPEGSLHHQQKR
T7 sequence (P08648 895-1049 partner limits assumed): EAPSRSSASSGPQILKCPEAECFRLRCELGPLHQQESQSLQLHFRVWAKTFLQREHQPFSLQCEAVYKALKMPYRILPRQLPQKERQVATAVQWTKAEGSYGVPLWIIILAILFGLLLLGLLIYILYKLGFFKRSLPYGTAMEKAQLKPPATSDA
T7 sequence (P05556 21-798): as the sequence (P05556 21-798) above

In the case of CSCC[C@@H]1NC(=O)[C@H](C)NC(=O)[C@H](CCCNC(=N)N)NC(=O)[C@H](CCCCN)NC(=O)[C@@H](N)CSSC[C@@H](C(=O)O)NC(=O)[C@H](Cc2ccc(O)cc2)NC(=O)[C@H](CC(=O)O)NC(=O)[C@H](CC(N)=O)NC(=O)[C@H](CC(C)C)NC(=O)CNC(=O)[C@H](CC(=O)O)NC(=O)[C@H](CC(C)C)NC1=O (H-CKRAMLDGLNDYC-OH; disulfide 1-13), the IC50 (α4β1 [1]) is reported as 1000 µM and the “activity relative to MLDG in molar ratio” value (α4β1 [1]; Jurkat cells / VCAM-1) is reported as “five fold more active”.
With CKRAMLA^7GLNDYC the “inhibition of Jurkat cell adhesion to immobilized VCAM-1 (in words)” value (α4β1 [1]) was “no significant activity”.
Molecule “Echistatin (ECESGPCCRNCKFLKEGTICKRARGDDMDDYCNGKTCDCPRNPHKGPAT) [reference compound]” has an IC50 (α4β1 [1]; Jurkat cells, ligand VCAM-1, read-out: IC50, cell adhesion) greater than 10 µM, an IC50 (αIIbβ3, αvβ3, α5β1) of 0.02 to 0.13 µM and an IC50 (αvβ3) of 0.05 µM. For the same molecule, the IC50 (α4β7) was greater than 10 µM, the IC50 (αIIbβ3 [2]) was 0.13 µM and the “activity in α4 integrin cell adhesion assays” value (α4β1 and α4β7 integrins) was “no detectable activity”. For the same molecule, the “Number of Islets, Infiltration Score ++” value ([3]; ++ = ⅓ of the islet infiltrated, of 27 (echistatin) or 29 (EC-3) islets, nine weeks i.p.) was 10, the “Number of Islets, Infiltration Score +++” value ([3]; +++ = ½ or more of the islet infiltrated, of 27 (echistatin) or 29 (EC-3) islets, nine weeks i.p.) was 10 and the “Number of Animals without infiltration” value ([3]; NOD mice, i.p. three times per week for nine weeks, echistatin 1 μg/mouse, EC-3 3 μg/mouse, 10 animals per group) was 0. For the same molecule, the “effect on lymphocyte infiltration in pancreatic islets of NOD mice (in words)” value ([3]; echistatin 1 μg/mouse, EC-3 3 μg/mouse) was “inactive”, the “effect on lymphocyte infiltration in pancreatic islets of NOD mice (in words)” value ([3]; echistatin 1 μg/mouse, EC-3 3 μg/mouse, listed as echistatin) was “ineffective” and the “Number of Islets, Infiltration Score −” value ([3]; − = no infiltration, of 27 (echistatin) or 29 (EC-3) islets, nine weeks i.p.) was 5. For the same molecule, the IC50 (α6β1; K562 (α6+) cells, α6β1, ligand Lm) was greater than 10 µM, the “inhibition of adhesion to laminin of K562 cells transfected with α6” value (α6β1; at concentration 10 μM) was “neither echistatin nor EC3 inhibited” and the IC50 (α4β1 [4]) was greater than 10 µM. The “inhibition of binding of K562 cells to immobilized fibronectin” value (α5β1) was “inhibited binding”, the IC50 (α4β1 [5]) was greater than 10 µM and the IC50 (αIIbβ3 [6]) was 0.05 µM.
In the case of GRGDSP, the “effect on adhesion of Jurkat cells to immobilized EC3” value (Jurkat cells) is reported as “not effective”.
For RGDS [reference compound], the “inhibition of Jurkat cell adhesion to immobilized VCAM-1” value (α4β1 [1]; at this concentration (5 mM)) was “inactive”.
For “eristostatin: short disintegrin, potent inhibitor of αIIbβ3, SEQ ID NO:8 (QEEPCATGPCCRRCKFKRAGKVCRVARGDWNDDYCTGKSCDCPRNPWNG; ends and bridges not checked; cysteine pairing not given here; listed as Eristocophis macmahonii)”, the “effect on human melanoma cell (MV3) metastases” value (MV3 cells) is listed as “inhibits human melanoma cell (MV3) metastases”.
For “flavoridin: medium size disintegrin, SEQ ID NO:10”, the “decrease of ability to inhibit ADP-induced platelet aggregation” value (αIIbβ3 [7]) is listed as roughly 40 fold.
For “phenylacetic acid-Leu-Asp-Phe-d-Pro-amide [CS-1 peptide]”, the “effect on accelerated coronary arteriopathy” value (α4β1 (VLA-4) integrin) is listed as “reduces accelerated coronary arteriopathy”.
